Our source for the IC50 values is patent publication US11219618B2, “Pyridylpyridone compounds” (Sprint Bioscience AB, priority 2017, dated 2022).

A value given as a limit tells only on which side of the number the result lay.

Assay [1] deals with Vps34 enzyme (Homo sapiens (Human), UniProt Q8NEB9). The assay is described as follows: Vps34 biochemical assay (Adapta kinase assay). The conditions noted are these: 20 μM ATP and 200 μM PI:PS in substrate mix, 1 h at room temperature, TR-FRET, read-out: Median IC50 nM Adapta. As for the experimental part: Dilution series of compounds of the invention were prepared in DMSO at 100 times the final assay concentration (n1=n0/3 in 10 points). The compounds were further diluted to 4 times the assay concentration in assay buffer (Life technologies buffer Q, PV5125, diluted 5 times supplemented with 2 mM DTT and 2 mM MnCl2). 2.5 μl of the diluted compounds were added to a 384 well assay plate followed by 2.5 μl of 16.5 nM Vps34 enzyme (Life technologies, PV5126). Enzyme and compounds were pre-incubated at rt for 15 min. Then 5 μl of substrate mix containing 20 μM ATP (Life technologies, PV3227) and 200 μM PI:PS substrate (Life technologies, PV5122) in assay buffer was added to the wells containing compound and enzyme. Mixing was performed by pipetting several times. The reaction was incubated at room temperature for 1 h. Then 5 μl stop-detection mix, prepared as described in the Adapta kinase assay kit instructions (Life technologies, PV5099) containing Adapta Eu-anti-ADP antibody (2.3 nM), Alexa Fluor 647 ADP tracer (9 nM) and EDTA (30 mM) in TR-FRET buffer, was added to quench the reaction. Mixing was performed by pipetting several times. The assay plate was then incubated at room temperature for 30 min and read with Artemis micro plate reader. Percent inhibition of the compounds as compared to DMSO treated control samples was calculated. By the use of Dotmatics software compound concentration versus percent inhibition was fitted to generate IC50 values.
For orientation: TR-FRET usually uses a lanthanide donor and a delayed reading to cut background.

Assay [2] relates to autophagy in HOS cells (GFP-LC3). The assay is described as follows: High content screening autophagy assay (GFP-LC3 foci). The assay is classed as cell-based. The conditions noted are these: Homo sapiens; HOS cells expressing GFP-LC3; autophagy activated with KU-0063794 500 nM plus Bafilomycin A1 5 nM; 6 hours; foci area per cell; read-out: Median IC50 (μM) Cellular assay. How it is done:
Human osteosarcoma cells (HOS) stably expressing a Green Fluorescent Protein (GFP) tagged LC3 (GFP-LC3) were used to determine the inhibitory effect on autophagy of proprietary compounds. For that purpose, autophagy was activated by using the mTOR inhibitor KU-0063794 at 500 nM in the presence of Bafilomycin A1 (Sigma-Aldrich) at 5 nM. Shortly, cells were plated overnight in clear bottom 96-well plates in DMEM—High Modified media (Hi-Clone Cat #SH30285.01). At the start of the experiment, the media was removed and replaced with fresh media containing the mTOR inhibitor, Bafilomycin A1 and the vehicle or a test compound as indicated. After 6 hours the media was removed, cells were washed twice with ice-cold phosphate buffered saline (PBS) and fixed with 4% paraformaldehyde for 20 minutes at room temperature. Then the cells were washed twice with ice-cold PBS before adding Hoechst 33342 at 1 μg/ml in PBS for nuclear staining. After incubation overnight at 4° C., cells were washed once with PBS to remove the excess of dye and 100 μl of PBS was added to each well. Images were acquired at 20× magnification, 6 images per well, using the ImageXpress automated microscope (Molecular Devices Inc.) and analyzed with MetaXpress software to identify LC3-GFP foci. Foci area per cell values were used to generate dose response curves and […] were calculated using the non-linear fitting analysis in GraphPad Prism software.
The results of the assay are shown in Table 2 (Median IC50 μM HOS-LC3).

Chain of Vps34 enzyme (Q8NEB9 whole entry): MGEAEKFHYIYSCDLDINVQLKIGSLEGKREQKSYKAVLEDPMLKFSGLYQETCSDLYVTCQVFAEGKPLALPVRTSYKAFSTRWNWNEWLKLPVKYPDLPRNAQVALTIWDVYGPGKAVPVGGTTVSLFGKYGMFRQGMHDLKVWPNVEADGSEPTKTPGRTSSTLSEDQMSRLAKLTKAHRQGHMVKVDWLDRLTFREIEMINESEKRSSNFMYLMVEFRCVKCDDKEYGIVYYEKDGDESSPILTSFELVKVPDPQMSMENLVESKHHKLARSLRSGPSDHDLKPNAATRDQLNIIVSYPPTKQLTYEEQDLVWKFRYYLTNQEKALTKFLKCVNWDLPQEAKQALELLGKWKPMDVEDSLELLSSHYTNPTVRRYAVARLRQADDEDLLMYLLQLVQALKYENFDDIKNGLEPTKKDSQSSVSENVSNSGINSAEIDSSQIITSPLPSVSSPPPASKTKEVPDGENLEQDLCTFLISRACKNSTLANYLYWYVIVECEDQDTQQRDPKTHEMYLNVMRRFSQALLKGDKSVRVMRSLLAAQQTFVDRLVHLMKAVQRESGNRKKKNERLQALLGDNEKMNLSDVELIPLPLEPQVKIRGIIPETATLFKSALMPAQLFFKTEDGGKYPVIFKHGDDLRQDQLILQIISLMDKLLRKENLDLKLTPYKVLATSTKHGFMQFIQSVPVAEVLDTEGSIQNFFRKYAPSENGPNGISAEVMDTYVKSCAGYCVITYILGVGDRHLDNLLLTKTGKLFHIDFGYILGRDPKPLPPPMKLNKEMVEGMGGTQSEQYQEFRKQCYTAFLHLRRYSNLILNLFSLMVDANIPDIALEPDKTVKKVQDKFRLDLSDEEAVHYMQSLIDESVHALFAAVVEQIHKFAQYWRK

As to `COC(C)(C)C1CCCN1c1cc(-c2ccnc(NC(C)=O)c2)cc(=O)[nH]1` (stereo not drawn) [Example 68, N-[4-[2-[2-(1-methoxy-1-methyl-ethyl)pyrrolidin-1-yl]-6-oxo-1H-pyridin-4-yl]-2-pyridyl]acetamide], in assay [1], the IC50 (in general, the concentration at which inhibition is half-maximal) amounted to 26 nM.

For `COC(=O)Nc1cc(-c2cc(-c3cccnc3C(F)(F)F)[nH]c(=O)c2)ccn1` [Example 52, Methyl N-[4-[2-oxo-6-[2-(trifluoromethyl)-3-pyridyl]-1H-pyridin-4-yl]-2-pyridyl]carbamate], the values for the IC50 in assay [2] and in assay [1] were 0.022 µM and < 5 nM, respectively. Regarding `COC(=O)Nc1cc(-c2cc(-c3ccccc3C(F)(F)F)[nH]c(=O)c2)ccn1` [Example 48, Methyl N-[4-[2-oxo-6-[2-(trifluoromethyl)phenyl]-1H-pyridin-4-yl]-2-pyridyl]carbamate], the IC50 was 0.02 µM in assay [2] and < 5 nM in assay [1]. The matching figures for `CCn1cc(-c2cc(-c3ccnc(NC(C)=O)c3)cc(=O)[nH]2)c(C(F)(F)F)n1` [Example 44, N-[4-[2-[1-ethyl-3-(trifluoromethyl)pyrazol-4-yl]-6-oxo-1H-pyridin-4-yl]-2-pyridyl]acetamide]: 0.138 µM and < 5 nM. The matching figures for `CC(=O)Nc1cc(-c2cc(N3CCOCC3C(F)(F)F)[nH]c(=O)c2)ccn1` (stereo not drawn) [Example 26, N-[4-[2-oxo-6-[3-(trifluoromethyl)morpholin-4-yl]-1H-pyridin-4-yl]-2-pyridyl]acetamide]: 0.113 µM and < 5 nM. In the case of `CC(=O)Nc1cc(-c2cc(-c3cnccc3C)[nH]c(=O)c2)ccn1` [Example 40, N-[4-[2-(4-methyl-3-pyridyl)-6-oxo-1H-pyridin-4-yl]-2-pyridyl]acetamide], the IC50 in assay [1] is < 5 nM. Take `COC(=O)Nc1cc(-c2cc(N3CCOCC3C(F)(F)F)[nH]c(=O)c2)ccn1` (stereo not drawn) [Example 45, Methyl N-[4-[2-oxo-6-[3-(trifluoromethyl)morpholin-4-yl]-1H-pyridin-4-yl]-2-pyridyl]carbamate]: the IC50 is 0.023 µM in assay [2] and < 5 nM in assay [1]. The matching figures for `O=C(Nc1cc(-c2cc(N3CCCCC3C(F)(F)F)[nH]c(=O)c2)ccn1)C1CC1` (stereo not drawn) [Example 21, N-[4-[2-oxo-6-[2-(trifluoromethyl)-1-piperidyl]-1H-pyridin-4-yl]-2-pyridyl]cyclopropanecarboxamide]: 0.016 µM and < 5 nM. Take `Nc1cc(-c2cc(-c3cccnc3)[nH]c(=O)c2)ccn1` [Example 5, 4-(2-Amino-4-pyridyl)-6-(3-pyridyl)-1H-pyridin-2-one]: the IC50 in assay [1] was 410 nM. As to `CCn1cc(-c2cc(-c3ccnc(NC(=O)OC)c3)cc(=O)[nH]2)c(C(F)(F)F)n1` [Example 54, Methyl N-[4-[2-[1-ethyl-3-(trifluoromethyl)pyrazol-4-yl]-6-oxo-1H-pyridin-4-yl]-2-pyridyl]carbamate], the IC50 in assay [2] is 0.105 µM; in assay [1], < 5 nM. Consider `CN(C)C(=O)Nc1cc(-c2cc(-c3ccccc3C(F)(F)F)[nH]c(=O)c2)ccn1` [Example 62, 1,1-Dimethyl-3-[4-[2-oxo-6-[2-(trifluoromethyl)phenyl]-1H-pyridin-4-yl]-2-pyridyl]urea], for which the IC50 in assay [1] is 50 nM. The same measure, in the same setting: with `O=C(Nc1cc(-c2cc(-c3ccccc3C(F)(F)F)[nH]c(=O)c2)ccn1)N1CCCC1` [Example 66, N-[4-[2-oxo-6-[2-(trifluoromethyl)phenyl]-1H-pyridin-4-yl]-2-pyridyl]pyrrolidine-1-carboxamide] the figure was 147 nM; with `CC(=O)Nc1cc(-c2cc(-c3cccnc3C)[nH]c(=O)c2)ccn1` [Example 38, N-[4-[2-(2-methyl-3-pyridyl)-6-oxo-1H-pyridin-4-yl]-2-pyridyl]acetamide], < 5 nM. In the case of `CC(=O)Nc1cc(-c2cc(-c3cccnc3C(F)(F)F)[nH]c(=O)c2)ccn1` [Example 36, N-[4-[2-oxo-6-[2-(trifluoromethyl)-3-pyridyl]-1H-pyridin-4-yl]-2-pyridyl]acetamide], the half-inhibitory concentration (IC50) in assay [2] is 0.092 µM; in assay [1], < 5 nM. The corresponding values for `CC(=O)Nc1cc(-c2cc(-c3cscc3C(F)(F)F)[nH]c(=O)c2)ccn1` [Example 42, N-[4-[2-oxo-6-[4-(trifluoromethyl)-3-thienyl]-1H-pyridin-4-yl]-2-pyridyl]acetamide] are 0.046 µM and < 5 nM. The corresponding values for `CC(=O)Nc1cc(-c2cc(N3CCCCC3C(F)(F)F)[nH]c(=O)c2)ccn1` (stereo not drawn) [Example 19, N-[4-[2-oxo-6-[2-(trifluoromethyl)-1-piperidyl]-1H-pyridin-4-yl]-2-pyridyl]acetamide] are 0.067 µM and 12 nM. The matching figures for `COC(=O)Nc1cc(-c2cc(-c3ccccc3Cl)[nH]c(=O)c2)ccn1` [Example 50, Methyl N-[4-[2-(2-chlorophenyl)-6-oxo-1H-pyridin-4-yl]-2-pyridyl]carbamate]: 0.029 µM and < 5 nM. As to `CC(=O)Nc1cc(-c2cc(-c3ccccc3C(F)(F)F)[nH]c(=O)c2)ccn1` [Example 34, N-[4-[2-oxo-6-[2-(trifluoromethyl)phenyl]-1H-pyridin-4-yl]-2-pyridyl]acetamide], the IC50 in assay [2] is 0.063 µM; in assay [1], < 5 nM. In the case of `COC(=O)Nc1cc(-c2cc(N3CCCCC3C(F)(F)F)[nH]c(=O)c2)ccn1` (stereo not drawn) [Example 70, Methyl N-[4-[2-oxo-6-[2-(trifluoromethyl)-1-piperidyl]-1H-pyridin-4-yl]-2-pyridyl]carbamate], the IC50 in assay [1] is < 5 nM. Take `CC(=O)Nc1cc(-c2cc(-c3ccccc3Cl)[nH]c(=O)c2)ccn1` [Example 1, N-[4-[2-(2-chlorophenyl)-6-oxo-1H-pyridin-4-yl]-2-pyridyl]acetamide]: the IC50 in assay [2] worked out at 0.026 µM. For `COCC(=O)Nc1cc(-c2cc(-c3ccccc3Cl)[nH]c(=O)c2)ccn1` [Example 12, N-[4-[2-(2-chlorophenyl)-6-oxo-1H-pyridin-4-yl]-2-pyridyl]-2-methoxy-acetamide], the 50% inhibitory concentration (IC50) stood at 0.147 µM in assay [2] and 7 nM in assay [1]. Regarding `CCS(=O)(=O)N1CCN(c2cc(-c3ccnc(NC(C)=O)c3)cc(=O)[nH]2)C(C(F)(F)F)C1` (stereo not drawn) [Example 30, N-[4-[2-[4-ethylsulfonyl-2-(trifluoromethyl)piperazin-1-yl]-6-oxo-1H-pyridin-4-yl]-2-pyridyl]acetamide], the figures for the IC50 in assay [2] and in assay [1] were 0.02 µM and < 5 nM, respectively. The matching figures for `Nc1cc(-c2cc(-c3ccccc3Cl)[nH]c(=O)c2)ccn1` [Example 11, 4-(2-Amino-4-pyridyl)-6-(2-chlorophenyl)-1H-pyridin-2-one]: 0.742 µM and 45 nM.

For the molecule `CC(=O)Nc1cc(-c2cc(N3CCOCC3C3CC3)[nH]c(=O)c2)ccn1` (stereo not drawn) [Example 32, N-[4-[2-(3-cyclopropylmorpholin-4-yl)-6-oxo-1H-pyridin-4-yl]-2-pyridyl]acetamide], in assay [1], the IC50 was 5 nM.
